Measured values reported in US20110263822A1, “COMPOSITION FOR THE PROPHYLAXIS AND TREATMENT OF HBV INFECTIONS AND HBV-MEDIATED DISEASES” (Rhein Biotech Gesellschaft Fur Neue Biotechnologische …, priority 2003, published 2011).
Ends that are not written are not given here.

Biological target: MHC class I molecules K^b (Mus musculus, UniProt P01901)
Assay: biochemical
Details: 48 hours at 18° C.; read-out: K^b-binding

Chain of MHC class I molecules K^b (P01901 whole entry, looked up): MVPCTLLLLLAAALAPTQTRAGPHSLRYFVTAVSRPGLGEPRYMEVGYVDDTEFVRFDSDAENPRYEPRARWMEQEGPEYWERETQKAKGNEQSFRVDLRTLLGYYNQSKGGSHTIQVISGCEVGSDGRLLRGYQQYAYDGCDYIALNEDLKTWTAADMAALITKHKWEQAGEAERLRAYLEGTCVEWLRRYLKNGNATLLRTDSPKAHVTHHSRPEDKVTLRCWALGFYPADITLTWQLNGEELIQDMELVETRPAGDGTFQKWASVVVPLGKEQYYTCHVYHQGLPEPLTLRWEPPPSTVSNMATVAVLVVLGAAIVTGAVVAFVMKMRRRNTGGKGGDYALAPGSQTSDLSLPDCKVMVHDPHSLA

Question: Which IC50 does the source give for IVSPFIPL [IVSPFIPL] here?
Answer: The IC50 was 773 nM.
